# Source: paper PMC6934184, “Selective DNA-PKcs inhibition extends the therapeutic index of localized radiotherapy and chemotherapy” (The Journal of Clinical Investigation, 2019)
# Test system: DNA-PK–expressing tumor cell lines
# Experiment: clonogenic survival with IR, tumor cell line panel
# Type: cell-based, human
# Conditions: 1 μM, 24 hours
# Procedure: Cell line γH2AX and 53BP1 foci immunofluorescence and quantitation
# Cells grown on coverslips or in 96-well plates were treated with 1 or 5 µM NU5455 or DMSO 1 hour prior to irradiation (0, 2.5 or 10 Gy) using an RS 320 X-ray Research System (Gulmay Medical). At set timepoints (15 or 30 minutes, or 1, 4, 5, 6, or 24 hours post-irradiation), cells were washed and fixed in methanol or 3% paraformaldehyde (PFA). […] In A549 and Calu-6, cells were Hoechst stained (5 µg/ml), and the average numbers of γH2AX and 53BP1 foci per cell were quantified from 400 nuclei per sample using an In Cell analyzer 1000 (GE Healthcare). For MCF7 cells, coverslips were mounted using Vectashield mounting medium with DAPI (Vector Labs) and imaged using a Leica TCS SPE confocal fluorescence microscope. Total fluorescence intensity was determined using ImagePro Plus 5.0 software (Media Cybernetics). […]
# Cells were washed in phosphate-buffered saline (PBS), trypsinized and counted. […] Colonies were fixed using Carnoys fixture (75% v/v methanol, 25% v/v acetic acid, Fisher), stained with crystal violet (0.4% w/v in water), and counted using a ColCount automated colony counter (Oxford Optronics). Cell survival was calculated as a percentage of the untreated control. […]
structure (smiles),measurement,value
CN(C(=O)CN1CCOCC1)c1ccc2sc3c(-c4cccc5c(=O)cc(N6CC7CCC(C6)O7)oc45)cccc3c2c1 [NU5455],"SER80 values, median over cell lines",2.3 fold
